In article PMC5743070 (The Journal of Biological Chemistry, 2017):

How the values were obtained:
[1] = target: isolated TTD (UHRF1_121–286); assay: FP displacement of FITC-labeled H3K9me3(1–25) peptide from TTD; format: biochemical; details: FP displacement of N-terminally FITC-labeled H3K9me3(1-25), 0.04 μM peptide, 8 μM TTD, 20 mM Tris pH 8.5, 50 mM NaCl, 3% DMSO, 0.01% TX100
Text: We designed a fragment library containing 2,040 compounds that was initially screened against isolated TTD (UHRF1_121–286) using a fluorescence polarization (FP) assay that tracked the displacement of a N-terminally tagged H3K9me3 peptide (H3K9me3(1–25)). From this screen, eight putative TTD-binding hits were identified. […] Because of limited commercial availability of the tricyclic amine, we focused only on BPC. The binding of this compound occurs close to (or within) the Arg^296-binding pocket; we observe significant perturbation of Trp^238 and Phe^278 resonances that form part of the pocket, and in Gly^236, which is directly adjacent to it (Fig. 4A and supplemental Fig. S5). We also see chemical shift changes in non-surface exposed residues that are close to or are in contact with the groove.
For FP assays, the TTD (UHRF1_121–286) was buffered in 20 mM Tris (pH 8.5), 50 mM NaCl, 3% DMSO, and 0.01% TX100. N-terminal FITC-labeled H3K9me3(1–25) peptide was synthesized and purified by Tufts University Core Services (Boston, MA). Titrations and compound binding assays were performed in a 10-μl volume at a constant labeled peptide concentration of 0.04 μM. For compound screening and titrations, a non-saturating fixed protein concentration of 8 μM TTD was used. FP assays were performed in 384-well Axygen plates using a Synergy 4 microplate reader (BioTek). […]

TTD–PHD (UHRF1_126–366) = target: T1, TTD–PHD (UHRF1_126–366) (Homo sapiens, UniProt Q96T88); assay: SAXS of TTD–PHD in the presence of BPC
T1 construct: His tag (TEV-cleavable) (N); made in house
T1 sequence (Q96T88 126-366): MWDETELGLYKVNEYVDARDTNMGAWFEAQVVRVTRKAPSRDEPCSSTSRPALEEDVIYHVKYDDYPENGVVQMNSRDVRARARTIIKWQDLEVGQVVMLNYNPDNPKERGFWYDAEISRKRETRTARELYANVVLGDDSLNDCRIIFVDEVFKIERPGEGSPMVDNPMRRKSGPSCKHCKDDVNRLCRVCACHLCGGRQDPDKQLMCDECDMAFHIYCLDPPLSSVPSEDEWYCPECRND
Description: All SAXS samples were buffered in 20 mM Tris (pH 7.5), 150 mM NaCl, 5 mM DTT, 5 mM β-mercaptoethanol, 2 mM TCEP and 10 μM ZnCl2, and data were collected at concentrations ranging from ∼1 to 5 mg/ml. Measurements were carried out at Beamline 12-ID-B of the Advanced Photon Source, Argonne National Laboratory. The energy of the X-ray beam was 14 Kev (wavelength λ = 0.8856 Å), and two setups (small- and wide-angle X-ray scattering) were used simultaneously in which the sample to 2M detector distance was adjusted to achieve scattering q values of 0.006 < q < 2.6 Å^−1, where q = (4π/λ)sinθ, and 2θ is the scattering angle. To reduce radiation damage and obtain good statistics, thirty 2D images were recorded for each buffer or sample solution using a flow cell, with an accumulated exposure time of 0.4–2.0 s. No radiation damage was observed as confirmed by the absence of systematic signal changes in sequentially collected X-ray scattering images. The scattering profile of the protein was calculated by subtracting the background buffer contribution from the […] using the program PRIMUS (ATSAS package, EMBL) ([35]). Concentration series measurements for a sample were carried out to remove the scattering contribution caused by interparticle interactions and to extrapolate the data to infinite dilution. Guinier analysis and the experimental radius of gyration (Rg) estimation from the data of infinite dilution were performed using PRIMUS. The pair distance distribution function, P(r), and the maximum dimension of the protein, Dmax, in real space were calculated with the indirect Fourier transform using the program GNOM ([36]). To avoid underestimation of the molecular dimension and consequent distortion in low resolution structural reconstruction, the parameter Dmax, the upper end of distance r, was chosen such that the resulting PDDF has a short, near zero-value tail at large r. The Rg from P(r) analysis was also reported. The molecular weights were estimated using Vc ([37]) in the q range of 0 < q < 0.3 Å^−1. Fifteen ab initio shape reconstructions (molecular envelopes) were generated using DAMMIF ([38]) and averaged with DAMAVER ([39]). The structural models were superimposed and overlaid with the averaged envelope using SUPCOMP ([40]). The theoretical scattering intensity of a structural model was calculated and fitted to the experimental scattering intensity using CRYSOL ([41]).
Table S1 (related to Fig. 1, S1, S4): SAXS parameters for the TTD-PHD module SAXS HTG-TTD-PHDa TTD-PHD/BPCb […]
b UHRF1126-366 in complex with BPC (2 mM, 4% DMSO) […]
d Rg calculated using Guinier fit e Rg calculated using GNOM (5) f Maximum distance between atoms from GNOM g Volume of correlation (6) h Mw estimated from SAXS data using Vc (6). The Mw expected from sequence is shown in parentheses i Normalized spatial discrepancy. The values are the average and standard deviation from fifteen runs

[2] = 2 mM BPC, 4% DMSO, GNOM, Table S1

For `N=C(N)N1CCC(Cc2ccccc2)CC1` [BPC, 4-benzylpiperidine-1-carboximidamide], the Kdisp [1] was 312 µM, the “Dmax of TTD-PHD with BPC” value (TTD–PHD (UHRF1_126–366); [2]) was 94 Å and the “Rg real (GNOM) of TTD-PHD with BPC” value (TTD–PHD (UHRF1_126–366); [2]) was 27.1 Å. The “Rg (Guinier fit) of TTD-PHD with BPC” value (TTD–PHD (UHRF1_126–366); 2 mM BPC, 4% DMSO, Guinier fit, Table S1) was 26.6 Å, the “Vc (volume of correlation) of TTD-PHD with BPC” value (TTD–PHD (UHRF1_126–366); 2 mM BPC, 4% DMSO, Table S1) was 280.5 and the “Rg (Guinier fit) of TTD–PHD with BPC” value (TTD–PHD (UHRF1_126–366); 4 mM BPC, 4% DMSO, 20 mM Tris pH 7.5, 150 mM NaCl, Guinier fit, apo 24.5) was 27.1 Å. For the same compound, the “Vc (volume of correlation) of TTD–PHD with BPC” value (TTD–PHD (UHRF1_126–366); 4 mM BPC, 4% DMSO, apo 274.3) was 284.4, the “Rg real (GNOM) of TTD–PHD with BPC” value (TTD–PHD (UHRF1_126–366); 4 mM BPC, 4% DMSO, from GNOM, apo 24.9) was 27.2 Å and the “Dmax of TTD–PHD with BPC” value (TTD–PHD (UHRF1_126–366); 4 mM BPC, 4% DMSO, from GNOM, apo 83) was 94 Å. The “shallow secondary shoulder of pair-distance distribution function” value (TTD–PHD (UHRF1_126–366); TTD–PHD with BPC (4 mM, 4% DMSO)) was ~50 Å.
